For 44 molecules, inhibition results are on record in patent publication US11952387B2, “Bicyclic heteroaromatic ring derivative” (priority 2018, dated 2024).

For orientation: inhibition means the change of the read-out against control, counted positive when it falls.

In the test the test system is HRV14. In words: Inhibitory activity against human rhinovirus infection and replication (quantitative real-time PCR). In kind it is cell-based. Particulars: Human rhinovirus sp., MRC5; 100 nmol/L test compound; MRC-5 cells infected with HRV14 at MOI=0.2; 48 hours; viral load normalized to 18s rRNA; read-out: Percent Inhibition. How it is done: Evaluation of inhibitory activity against human rhinovirus infection and replication (by quantitative real-time PCR)
A required amount of a test compound was weighed off and dissolved in dimethyl sulfoxide (DMSO) to yield a 10 mmol/L stock solution. Next, the stock solution was diluted with a medium for viral infection (minimum essential medium (MEM) supplemented with 2% fetal bovine serum, 5% Tryptose phosphate broth, and 30 mmol/L MgCl2) to prepare 100 nmol/L and 1000 nmol/L of test compound solutions. MRC-5 (human fetal lung fibroblast: ATCC) was suspended at a density of 30000 cells/mL in cell culture medium (MEM supplemented with 10% fetal bovine serum), and 625 μL of the suspension per well was seeded into a 24-well cell culture plate and cultured at 37° C. in 5% CO2. After 72 hours, it was confirmed that the plate had become 80% confluent. The plate was washed with 625 μL of phosphate-buffered physiological saline (Ca/Mg-free; PBS-) once, and 625 μL of the test compound solution prepared just before use was immediately added to the plate. After 30 minutes, the medium was removed followed by addition of 187.5 μL of the test compound solution that had been prepared such that the cells were infected with HRV14 (ATCC) at multiplicity of infection (MOI)=0.2. The cells were then cultured at 35° C. in 5% CO2. After additional 2 hours, 625 μL of the test compound solution prepared just before use was added, and the cells were cultured at 35° C. in 5% CO2. After 48 hours, the cells were washed with 625 μL of PBS- once, and total RNA was extracted from the cells using RNeasy (R) plus kit (Qiagen) according to the manufacturer's instruction. Subsequently, cDNA was synthesized using High-Capacity cDNA Reverse Transcription Kit (Thermo Fisher Scientific). Finally, quantitative real-time PCR was performed in 7500 Fast Real-time PCR system (Life technologies) to measure HRV14 and 18s rRNA. The measurement protocol consisted of the initial denaturation phase at 95° C. for 20 seconds followed by 40 cycles of the denaturation step at 95° C. for 3 seconds and the annealing/elongation step at 60° C. for 30 seconds. The primers used were HRV14 forward primer set forth in SEQ ID NO: 1 and HRV14 reverse primer set forth in SEQ ID NO: 2, and the probe is set forth in SEQ ID NO: 3.
18s rRNA was measured using Eukaryotic 18S rRNA Endogenous Control (Applied Biosystems). According to Equation 1, 18s ribosomal RNA was used as an internal standard to normalize the viral load of HRV14: Viral load of HRV14=The amount of HRV14 in virus-infected cells/the amount of 18s rRNA in virus-infected cells Equation 1
Inhibitory activity of test compounds was calculated as a percent inhibition (%) according to Equation 2: Percent inhibition (%)=[the viral load of HRV in virus-infected cells in the absence of the test compound −the viral load of HRV in virus-infected cells in the presence of the test compound]/[the viral load of HRV in virus-infected cells in the absence of the test compound]×100 Equation 2
The results of using 100 nmol/L test compound solutions were shown in the tables below according to Examples. In the tables, percent inhibition was expressed as follows: percent inhibition >80%: +++, 80%≥percent inhibition >50%: ++, and 50%≥percent inhibition:+.
(In qPCR the cycle at which signal appears reflects the starting amount.)
As to `COc1ccc(-c2c(C)nc3sc(C(C)(C)O)nn23)cc1S(=O)(=O)CCC(C)(C)O` [Example 2-42], the inhibition at 0.1 µM was at most 50%.

Consider `COc1c(F)cc(-c2c(C)nc3sc(C(C)(C)O)nn23)cc1S(=O)(=O)CC(C)(C)O` [Example 2-43], for which the inhibition at 0.1 µM is 50 to 80%.

With `Cc1nc2sc(C(C)(C)O)nn2c1-c1ccc(C(F)(F)F)c(S(=O)(=O)C2CC(F)(F)C2)c1` [Example 2-44], the inhibition at 0.1 µM is above 80%.

With `Cc1nc2sc(C(C)(C)O)nn2c1-c1ccc(C(F)(F)F)c(S(=O)(=O)CCC(C)(C)O)c1` [Example 2-45], the inhibition at 0.1 µM is at most 50%.

In the case of `Cc1nc2sc(C(C)(C)O)nn2c1-c1ccc(C(F)(F)F)c(S(=O)(=O)[C@H]2C[C@@H](O)C2)c1` [Example 2-46], the inhibition at 0.1 µM was above 80%.

In the case of `Cc1nc2sc(C(C)(C)O)nn2c1-c1ccc(C(F)(F)F)c(S(=O)(=O)[C@H]2C[C@H](O)C2)c1` [Example 2-47], the inhibition at 0.1 µM was above 80%.

With `COc1ccc(-c2c(C)nc3sc(C(C)(C)O)nn23)cc1S(=O)(=O)C1COC1` [Example 2-49], the inhibition at 0.1 µM was at most 50%.

As for `COc1ccc(-c2c(C)nc3sc(C(C)(C)O)nn23)cc1S(=O)(=O)CC(C)(C)CO` [Example 2-50], the inhibition at 0.1 µM was at most 50%.

For the molecule `COc1ccc(-c2c(C)nc3sc(C(C)(C)O)nn23)cc1S(=O)(=O)C1CN(C(=O)OC(C)(C)C)C1` [Example 2-51], the inhibition at 0.1 µM was above 80%.

Regarding `Cc1nc2sc(C(C)(C)O)cn2c1-c1ccc(C(F)(F)F)c(S(=O)(=O)CC(C)(C)O)c1` [Example 2-52], the inhibition at 0.1 µM is at most 50%.

As to `[2H]C([2H])([2H])C(O)(CS(=O)(=O)c1cc(-c2c(C)nc3sc(C(C)(C)O)nn23)ccc1OC)C([2H])([2H])[2H]` [Example 2-53], the inhibition at 0.1 µM fell in the range of 50 to 80%.

In the case of `COc1ccc(-c2c(C)nc3sc(C(C)(C)O)nn23)cc1S(=O)(=O)[C@H]1C[C@@H](O)C1` [Example 2-54], the inhibition at 0.1 µM is at most 50%.

Take `COc1ccc(-c2c(C)nc3sc(C(C)(C)O)nn23)cc1S(=O)(=O)[C@H]1C[C@@](C)(O)C1` [Example 2-55]: the inhibition at 0.1 µM is at most 50%.

In the case of `COc1ccc(-c2c(C)nc3sc(C(C)(C)O)nn23)cc1S(=O)(=O)[C@H]1C[C@H](O)C1` [Example 2-56], the inhibition at 0.1 µM was at most 50%.

In the case of `CCOc1ccc(-c2c(C)nc3sc(C(C)(C)O)nn23)cc1S(=O)(=O)CC(C)(C)O` [Example 2-57], the inhibition at 0.1 µM fell in the range of 50 to 80%.

Consider `[2H]C([2H])([2H])Oc1ccc(-c2c(C)nc3sc(C(C)(C)O)nn23)cc1S(=O)(=O)CC(C)(C)O` [Example 2-58], for which the inhibition at 0.1 µM lay in the range of 50 to 80%.

Take `COc1ccc(-c2c(C)nc3sc(C(C)(C)O)nn23)cc1S(=O)(=O)CC(C)(O)CO` (centres unmarked) [Example 2-59]: the inhibition at 0.1 µM is at most 50%.

In the case of `COc1ccc(-c2c(C)nc3sc(C(C)(C)O)nn23)cc1S(=O)(=O)CC(C)(C)C#N` [Example 2-60], the inhibition at 0.1 µM was at most 50%.

As for `COc1ccc(-c2c(C)nc3sc(C(C)(C)O)nn23)cc1S(=O)(=O)[C@@H]1CC[C@@H](O)C1` [Example 2-62], the inhibition at 0.1 µM was at most 50%.

In the case of `COc1ccc(-c2c(C)nc3sc(C(C)(C)O)nn23)cc1S(=O)(=O)CC1(O)CCC1` [Example 2-63], the inhibition at 0.1 µM was at most 50%.

On to `COc1ccc(-c2c(C)nc3sc(C(C)(C)O)nn23)cc1S(=O)(=O)CC1(O)CCC(F)(F)CC1` [Example 2-64], for which the inhibition at 0.1 µM was above 80%.

Regarding `COc1ccc(-c2c(C)nc3sc(C(C)(C)O)nn23)cc1S(=O)(=O)C1CC2(COC2)C1` [Example 2-65], the inhibition at 0.1 µM was above 80%.

Consider `COc1ccc(-c2c(C)nc3sc(C(C)(C)O)nn23)cc1S(=O)(=O)C1(C(C)(C)O)CC1` [Example 2-66], for which the inhibition at 0.1 µM was above 80%.

In the case of `COc1ccc(-c2c(C)nc3sc(C(C)(C)O)nn23)cc1S(=O)(=O)C1(C(C)(C)O)CC(F)(F)C1` [Example 2-67], the inhibition at 0.1 µM was above 80%.

In the case of `COc1ccc(-c2c(C)nc3sc(C(C)(C)O)nn23)cc1S(=O)(=O)C1CCC2(CC1)OCCO2` [Example 2-68], the inhibition at 0.1 µM was in the range of 50 to 80%.

Take `COc1ccc(-c2c(C)nc3sc(C(C)(C)O)nn23)cc1S(=O)(=O)C1CC(F)(F)C1` [Example 2-69]: the inhibition at 0.1 µM was 50 to 80%.

For the molecule `COc1ccc(-c2c(C)nc3sc(C(C)(C)O)nn23)cc1S(=O)(=O)[C@@H]1CC[C@](C)(O)C1` [Example 2-70], the inhibition at 0.1 µM was at most 50%.

Turning to `COc1ccc(-c2c(C)nc3sc(C(C)(C)O)nn23)cc1S(=O)(=O)[C@H]1C[C@@H](C(C)(C)O)C1` [Example 2-71], the inhibition at 0.1 µM is above 80%.

Take `COc1ccc(-c2c(C)nc3sc(C(C)(C)O)nn23)cc1S(=O)(=O)[C@]1(C2CC2)C[C@H](O)C1` [Example 2-72]: the inhibition at 0.1 µM was at most 50%.

With `COc1ccc(-c2c(C)nc3sc(C(C)(C)O)nn23)cc1S(=O)(=O)[C@H]1C[C@](C)(C(C)(C)O)C1` [Example 2-73], the inhibition at 0.1 µM is above 80%.

Turning to `COc1ccc(-c2c(C)nc3sc(C(C)(C)O)nn23)cc1S(=O)(=O)[C@H]1C[C@@](C)(C(C)(C)O)C1` [Example 2-74], the inhibition at 0.1 µM is at most 50%.

In the case of `COc1ccc(-c2c(C)nc3sc(C(C)(C)O)nn23)cc1S(=O)(=O)[C@]1(C)C[C@H](O)C1` [Example 2-75], the inhibition at 0.1 µM is at most 50%.

For the molecule `COc1ccc(-c2c(C)nc3sc(C(C)(C)O)nn23)cc1S(=O)(=O)[C@H]1C[C@](C)(O)C1` [Example 2-76], the inhibition at 0.1 µM is above 80%.

Turning to `Cc1nc2sc(C(C)(C)O)nn2c1-c1ccc(C(F)(F)F)c(S(=O)(=O)[C@H]2C[C@](C)(O)C2)c1` [Example 2-77], the inhibition at 0.1 µM was above 80%.

On to `COc1ccc(-c2c(C)nc3sc(C(C)(C)O)nn23)cc1S(=O)(=O)[C@H]1C[C@@H]1C(C)(C)O` [Example 2-78], for which the inhibition at 0.1 µM is at most 50%.

For the molecule `COc1ccc(NS(=O)(=O)c2cc(-c3c(C)nc4sc(C(C)(C)O)cn34)ccc2OC)cc1` [Example 2-79], the inhibition at 0.1 µM was in the range of 50 to 80%.

Consider `COc1ccc(-c2c(C)nc3sc(C(C)(C)O)cn23)cc1S(=O)(=O)Nc1cccc(O)c1` [Example 2-80], for which the inhibition at 0.1 µM was at most 50%.

`COc1ccc(-c2c(C)nc3sc(C(C)(C)O)cn23)cc1S(=O)(=O)Nc1ccccc1O` [Example 2-81]: the inhibition at 0.1 µM was above 80%.

With `COc1ccc(-c2c(C)nc3sc(C(O)(C4CC4)C4CC4)nn23)cc1S(=O)(=O)[C@H]1C[C@](C)(O)C1` [Example 2-82], the inhibition at 0.1 µM is above 80%.

Turning to `Cc1nc2sc(C(C)(C)O)nn2c1-c1cc2c(c(S(=O)(=O)CC(C)(C)O)c1)OCC2` [Example 2-83], the inhibition at 0.1 µM fell in the range of 50 to 80%.

Take `COc1ccc(-c2c(C)nc3sc(C(O)(C4CC4)C4CC4)nn23)cc1S(=O)(=O)C1CN(C(=O)OC(C)(C)C)C1` [Example 2-84]: the inhibition at 0.1 µM is above 80%.

As to `COc1ccc(-c2c(C)nc3sc(C(C)(C)O)nn23)cc1S(=O)(=O)Nc1cccnc1` [Example 2-85], the inhibition at 0.1 µM was at most 50%.

With `COc1ccc(-c2c(C)nc3sc(C(C)(C)O)nn23)cc1S(=O)(=O)Nc1ccc(O)cc1` [Example 2-86], the inhibition at 0.1 µM is above 80%.

As for `Cc1nc2sc(C(O)(C3CC3)C3CC3)nn2c1-c1ccc(C(F)(F)F)c(S(=O)(=O)CC(C)(C)O)c1` [Example 2-87], the inhibition at 0.1 µM is above 80%.
